pIC50: −log10 of the molar value.
What was measured:
[1] = target: T1, human liver-derived metalloprotease (Homo sapiens, UniProt Q99542); assay: Inhibitor screening system with fluorogenic substrate DNP-Pro-Cha-Abu-Cys(Me)-His-Ala-Lys(N-Me-Abz)-NH2; type: biochemical; set-up: the objective metalloprotease of about 46 kDa was eluted with buffer E (QIAexpress System); 6xHis (vector-encoded N-terminal tag of pQE30); made in house; host or cells: Escherichia coli JM109/pNHMB; settings: 10 μM substrate, 37° C., 16 hours, excitation 365 nm, emission 460 nm; read-out: 50% inhibitory concentration of metalloprotease activity
T1 sequence (Q99542 98-508): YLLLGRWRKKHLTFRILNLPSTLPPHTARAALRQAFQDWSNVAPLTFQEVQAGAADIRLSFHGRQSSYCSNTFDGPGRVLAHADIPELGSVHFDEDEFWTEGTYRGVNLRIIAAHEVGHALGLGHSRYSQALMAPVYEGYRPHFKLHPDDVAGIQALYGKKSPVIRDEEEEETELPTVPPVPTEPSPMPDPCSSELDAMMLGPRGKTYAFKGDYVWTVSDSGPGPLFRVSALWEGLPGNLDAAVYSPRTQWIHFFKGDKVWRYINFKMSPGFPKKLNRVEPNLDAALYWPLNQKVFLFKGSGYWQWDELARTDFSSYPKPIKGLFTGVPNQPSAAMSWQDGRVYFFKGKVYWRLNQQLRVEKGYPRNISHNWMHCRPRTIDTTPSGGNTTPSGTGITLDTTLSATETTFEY
Procedure: A 96-well plate (Fluoro B Plate, Dainippon Pharmaceutical) was filled in with 30 μL of buffer (0.25 M Tris-HCl (pH 8.0), 5 mM CaCl2, 100 mM NaCl, 10 μM ZnCl2) and 20 μL of the recombinant human liver-derived metalloprotease (2.4 mg/ml) obtained in Example 5. […] When actinonin (Peptide Institute), a metalloprotease inhibitor, was added at a varying concentration to this reaction mixture, it inhibited metalloprotease activity with a 50% inhibitory concentration of about 10 μM. It was, therefore, clear that this assay system can be used for the screening of inhibitors of the human liver-derived metalloprotease.

[2] = target: T1, human liver-derived metalloprotease; assay: PER assay of casein hydrolyzing activity in culture supernatant of COS-7 cells transfected with pTB1921; type: biochemical; set-up: expressed in transfected cells; host or cells: COS-7; settings: supernatant activated with 1 mM aminophenyl-mercuric acetate, 37° C., 30 minutes
Procedure: Add aminophenyl mercuric acetate (final concentration 1 mM) to the protein of the present invention and react at 37° C. for 30 minutes. Electrophorese the reaction mixture on SDS-polyacrylamide gels (non-reducing) in accordance with PER (F. T. Lundy et al., Electrophoresis, 16, 43, 1995). Then, saturate the polyacrylamide gels with the substrate and react in the reaction medium at 37° C. for 16 hours. After the reaction, stain the gels with CBB to detect a proteolytic activity.
The pTB1921 obtained in Example 1, which had been inserted into the expression plasmied pCMV·SPORT (GIBCO/BRL), was used for expression in animal cells. The COS-7 cell line (purchased from the Institute for Fermentation, Osaka) was cultured in serum-containing DMEM and subcultured on the day before introduction of the gene. When the culture became 50% confluent, the COS-7 cells were washed with serum-free DMEM, and 2.5 ml of serum-free medium was added. […]
To the cell culture supernatant obtained in Example 2 was added aminophenyl-mercuric acetate (final concentration 1 mM) and the reaction was carried out at 37° C. for 30 minutes. The activity was then determined by the PER assay (F. T. Lundy et al., Electrophoresis, 16, 43, 1995). As a result, casein hydrolyzing activity which was not found in the mock culture supernatant was detected in the culture supernatant of COS-7 cells transfected with pTB1921.

**Q.** `CCCCC[C@H](CC(=O)NO)C(=O)N[C@H](C(=O)N1CCC[C@H]1CO)C(C)C` [actinonin] was tested. Which pIC50 [1] did it give?
**A.** The pIC50 was roughly 5.00.

**Q.** For `c1cnc2c(c1)ccc1cccnc12` [o-phenanthroline], which “inhibition of casein hydrolyzing activity” value [2] is on record?
**A.** The value was “inhibited”.

Reference: patent US7001997B2, “Proteins, their production and use” (Takeda Chemical Industries, Ltd., priority 1996, dated 2006)
